Laboratory results published in PubChem BioAssay (NCI).
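Here, GI50 denotes the concentration required for 50% inhibition of growth. At the TGI there is no net growth.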

Tests used:
Assay in all cases: DTP human tumour cell line panel, 384-well format
786-0 renal = system: 786-0 renal
A498 renal = system: A498 renal
A549 NSCLC = system: A549 NSCLC
ACHN renal = system: ACHN renal
BT-549 breast = system: BT-549 breast
CAKI-1 renal = system: CAKI-1 renal
COLO 205 colon = system: COLO 205 colon
DU-145 prostate = system: DU-145 prostate
EKVX NSCLC = system: EKVX NSCLC
HCC-2998 colon = system: HCC-2998 colon
HCT-116 colon = system: HCT-116 colon
HCT-15 colon = system: HCT-15 colon
HL-60(TB) leukemia = system: HL-60(TB) leukemia
HOP-62 NSCLC = system: HOP-62 NSCLC
HS 578T breast = system: HS 578T breast
IGROV1 ovarian = system: IGROV1 ovarian
KM12 colon = system: KM12 colon
LOX IMVI melanoma = system: LOX IMVI melanoma
M14 melanoma = system: M14 melanoma
MALME-3M melanoma = system: MALME-3M melanoma
MCF7 breast = system: MCF7 breast
MDA-MB-231 breast = system: MDA-MB-231 breast
MDA-MB-435 melanoma = system: MDA-MB-435 melanoma
MDA-MB-468 breast = system: MDA-MB-468 breast
MOLT-4 leukemia = system: MOLT-4 leukemia
NCI-H226 lung = system: NCI-H226 lung
NCI-H23 lung = system: NCI-H23 lung
NCI-H322M lung = system: NCI-H322M lung
NCI-H460 NSCLC = system: NCI-H460 NSCLC
NCI-H522 lung = system: NCI-H522 lung
NCI/ADR-RES ovarian = system: NCI/ADR-RES ovarian
OVCAR-3 ovarian = system: OVCAR-3 ovarian
OVCAR-4 ovarian = system: OVCAR-4 ovarian
OVCAR-8 ovarian = system: OVCAR-8 ovarian
PC-3 prostate = system: PC-3 prostate
RPMI-8226 leukemia = system: RPMI-8226 leukemia
RXF 393 renal = system: RXF 393 renal
SF-268 CNS = system: SF-268 CNS
SF-295 CNS = system: SF-295 CNS
SK-MEL-28 melanoma = system: SK-MEL-28 melanoma
SK-MEL-5 melanoma = system: SK-MEL-5 melanoma
SK-OV-3 ovarian = system: SK-OV-3 ovarian
SN12C renal = system: SN12C renal
SNB-19 CNS = system: SNB-19 CNS
SNB-75 CNS = system: SNB-75 CNS
SR leukemia = system: SR leukemia
SW-620 colon = system: SW-620 colon
T-47D breast = system: T-47D breast
TK-10 renal = system: TK-10 renal
U251 glioblastoma = system: U251 glioblastoma
UACC-257 melanoma = system: UACC-257 melanoma
UACC-62 melanoma = system: UACC-62 melanoma
UO-31 renal = system: UO-31 renal
CCRF-CEM leukemia = system: CCRF-CEM leukemia
HOP-92 NSCLC = system: HOP-92 NSCLC
HT29 colon = system: HT29 colon
K-562 leukemia = system: K-562 leukemia
OVCAR-5 ovarian = system: OVCAR-5 ovarian
SF-539 CNS = system: SF-539 CNS
SK-MEL-2 melanoma = system: SK-MEL-2 melanoma

## Cc1ccc(Nc2nccc(N(C)c3ccc4c(C)n(C)nc4c3)n2)cc1S(N)(=O)=O
786-0 renal
  GI50: 4.16 µM
  TGI: > 100 µM
A498 renal
  GI50: 6.05 µM
  TGI: 90.9 µM
A549 NSCLC
  GI50: 4.55 µM
  TGI: > 100 µM
ACHN renal
  GI50: 6.18 µM
  TGI: > 100 µM
BT-549 breast
  GI50: 1.61 µM
  TGI: 16.6 µM
CAKI-1 renal
  GI50: 3.78 µM
  TGI: > 100 µM
COLO 205 colon
  GI50: 14 µM
  TGI: > 100 µM
DU-145 prostate
  GI50: 9.34 µM
  TGI: > 100 µM
EKVX NSCLC
  GI50: 14.3 µM
  TGI: > 100 µM
HCC-2998 colon
  GI50: > 100 µM
  TGI: > 100 µM
HCT-116 colon
  GI50: 5.38 µM
  TGI: > 100 µM
HCT-15 colon
  GI50: 4.4 µM
  TGI: 37.8 µM
HL-60(TB) leukemia
  GI50: 7.4 µM
  TGI: 18.3 µM
HOP-62 NSCLC
  GI50: 6.28 µM
  TGI: 34.5 µM
HS 578T breast
  GI50: 2.3 µM
  TGI: 7.68 µM
IGROV1 ovarian
  GI50: 5.68 µM
  TGI: > 100 µM
KM12 colon
  GI50: 7 µM
  TGI: > 100 µM
LOX IMVI melanoma
  GI50: 3.62 µM
  TGI: 40.4 µM
M14 melanoma
  GI50: 8.19 µM
  TGI: 52.9 µM
MALME-3M melanoma
  GI50: 2.73 µM
  TGI: > 100 µM
MCF7 breast
  GI50: 7.41 µM
  TGI: > 100 µM
MDA-MB-231 breast
  GI50: 5.54 µM
  TGI: > 100 µM
MDA-MB-435 melanoma
  GI50: 78.6 µM
  TGI: > 100 µM
MDA-MB-468 breast
  GI50: 2.97 µM
  TGI: 62.9 µM
MOLT-4 leukemia
  GI50: 2.36 µM
  TGI: 6.45 µM
NCI-H226 lung
  GI50: 1.99 µM
  TGI: 13.3 µM
NCI-H23 lung
  GI50: 4.79 µM
  TGI: 69.6 µM
NCI-H322M lung
  GI50: 7.64 µM
  TGI: 45.5 µM
NCI-H460 NSCLC
  GI50: 5.27 µM
  TGI: > 100 µM
NCI-H522 lung
  GI50: 6.73 µM
  TGI: 99.3 µM
NCI/ADR-RES ovarian
  GI50: 30.5 µM
  TGI: 93.6 µM
OVCAR-3 ovarian
  GI50: 22.6 µM
  TGI: > 100 µM
OVCAR-4 ovarian
  GI50: 9.52 µM
  TGI: 35.6 µM
OVCAR-8 ovarian
  GI50: 8.01 µM
  TGI: 61.3 µM
PC-3 prostate
  GI50: 11.2 µM
  TGI: 70.9 µM
RPMI-8226 leukemia
  GI50: 3.57 µM
  TGI: 11.5 µM
RXF 393 renal
  GI50: 0.485 µM
  TGI: 3.04 µM
SF-268 CNS
  GI50: 12.6 µM
  TGI: > 100 µM
SF-295 CNS
  GI50: 8.89 µM
  TGI: > 100 µM
SK-MEL-28 melanoma
  GI50: 55.2 µM
  TGI: > 100 µM
SK-MEL-5 melanoma
  GI50: 3.03 µM
  TGI: 10.7 µM
SK-OV-3 ovarian
  GI50: 6.47 µM
  TGI: > 100 µM
SN12C renal
  GI50: 7.86 µM
  TGI: > 100 µM
SNB-19 CNS
  GI50: > 100 µM
  TGI: > 100 µM
SNB-75 CNS
  GI50: 2.51 µM
  TGI: 29 µM
SR leukemia
  GI50: 6.38 µM
  TGI: 12.1 µM
SW-620 colon
  GI50: > 100 µM
  TGI: > 100 µM
T-47D breast
  GI50: 2.52 µM
  TGI: 11.4 µM
TK-10 renal
  GI50: 31.6 µM
  TGI: > 100 µM
U251 glioblastoma
  GI50: 9.87 µM
  TGI: > 100 µM
UACC-257 melanoma
  GI50: 12 µM
  TGI: 62.2 µM
UACC-62 melanoma
  GI50: 6.37 µM
  TGI: 20.8 µM
UO-31 renal
  GI50: 8.29 µM
  TGI: > 100 µM

## O=C(O)[C@H](Cc1c[nH]c2ccccc12)N1C(=O)c2ccccc2C1=O
786-0 renal
  GI50: > 100 µM
  TGI: > 100 µM
A498 renal
  GI50: > 100 µM
  TGI: > 100 µM
A549 NSCLC
  GI50: > 100 µM
  TGI: > 100 µM
ACHN renal
  GI50: > 100 µM
  TGI: > 100 µM
BT-549 breast
  GI50: > 100 µM
  TGI: > 100 µM
CAKI-1 renal
  GI50: > 100 µM
  TGI: > 100 µM
CCRF-CEM leukemia
  GI50: > 100 µM
  TGI: > 100 µM
COLO 205 colon
  GI50: > 100 µM
  TGI: > 100 µM
DU-145 prostate
  GI50: > 100 µM
  TGI: > 100 µM
EKVX NSCLC
  GI50: > 100 µM
  TGI: > 100 µM
HCC-2998 colon
  GI50: > 100 µM
  TGI: > 100 µM
HCT-116 colon
  GI50: > 100 µM
  TGI: > 100 µM
HCT-15 colon
  GI50: > 100 µM
  TGI: > 100 µM
HL-60(TB) leukemia
  GI50: > 100 µM
  TGI: > 100 µM
HOP-62 NSCLC
  GI50: > 100 µM
  TGI: > 100 µM
HOP-92 NSCLC
  GI50: > 100 µM
  TGI: > 100 µM
HS 578T breast
  GI50: > 100 µM
  TGI: > 100 µM
HT29 colon
  GI50: > 100 µM
  TGI: > 100 µM
IGROV1 ovarian
  GI50: > 100 µM
  TGI: > 100 µM
K-562 leukemia
  GI50: > 100 µM
  TGI: > 100 µM
KM12 colon
  GI50: > 100 µM
  TGI: > 100 µM
LOX IMVI melanoma
  GI50: > 100 µM
  TGI: > 100 µM
M14 melanoma
  GI50: > 100 µM
  TGI: > 100 µM
MALME-3M melanoma
  GI50: > 100 µM
  TGI: > 100 µM
MCF7 breast
  GI50: > 100 µM
  TGI: > 100 µM
MDA-MB-231 breast
  GI50: > 100 µM
  TGI: > 100 µM
MDA-MB-435 melanoma
  GI50: > 100 µM
  TGI: > 100 µM
MDA-MB-468 breast
  GI50: > 100 µM
  TGI: > 100 µM
MOLT-4 leukemia
  GI50: > 100 µM
  TGI: > 100 µM
NCI-H226 lung
  GI50: > 100 µM
  TGI: > 100 µM
NCI-H23 lung
  GI50: > 100 µM
  TGI: > 100 µM
NCI-H322M lung
  GI50: > 100 µM
  TGI: > 100 µM
NCI-H460 NSCLC
  GI50: > 100 µM
  TGI: > 100 µM
NCI-H522 lung
  GI50: > 100 µM
  TGI: > 100 µM
NCI/ADR-RES ovarian
  GI50: > 100 µM
  TGI: > 100 µM
OVCAR-3 ovarian
  GI50: > 100 µM
  TGI: > 100 µM
OVCAR-4 ovarian
  GI50: > 100 µM
  TGI: > 100 µM
OVCAR-5 ovarian
  GI50: > 100 µM
  TGI: > 100 µM
OVCAR-8 ovarian
  GI50: > 100 µM
  TGI: > 100 µM
PC-3 prostate
  GI50: > 100 µM
  TGI: > 100 µM
RPMI-8226 leukemia
  GI50: > 100 µM
  TGI: > 100 µM
RXF 393 renal
  GI50: > 100 µM
  TGI: > 100 µM
SF-268 CNS
  GI50: > 100 µM
  TGI: > 100 µM
SF-295 CNS
  GI50: > 100 µM
  TGI: > 100 µM
SF-539 CNS
  GI50: > 100 µM
  TGI: > 100 µM
SK-MEL-2 melanoma
  GI50: > 100 µM
  TGI: > 100 µM
SK-MEL-28 melanoma
  GI50: > 100 µM
  TGI: > 100 µM
SK-MEL-5 melanoma
  GI50: > 100 µM
  TGI: > 100 µM
SK-OV-3 ovarian
  GI50: > 100 µM
  TGI: > 100 µM
SN12C renal
  GI50: > 100 µM
  TGI: > 100 µM
SNB-19 CNS
  GI50: > 100 µM
  TGI: > 100 µM
SNB-75 CNS
  GI50: > 100 µM
  TGI: > 100 µM
SR leukemia
  GI50: > 100 µM
  TGI: > 100 µM
SW-620 colon
  GI50: > 100 µM
  TGI: > 100 µM
T-47D breast
  GI50: > 100 µM
  TGI: > 100 µM
TK-10 renal
  GI50: > 100 µM
  TGI: > 100 µM
U251 glioblastoma
  GI50: > 100 µM
  TGI: > 100 µM
UACC-257 melanoma
  GI50: > 100 µM
  TGI: > 100 µM
UACC-62 melanoma
  GI50: > 100 µM
  TGI: > 100 µM
UO-31 renal
  GI50: > 100 µM
  TGI: > 100 µM
